The supplement of paper PMC4862054

What was measured:
Settings in all cases: incubation time: 72 h
[1] = test system: SK-BR-3; test: normalised response (% of control), CellTiter-Glo; higher = more viable cells (100 = DMSO, 0 = benzethonium chloride kill control)
In short: (§1)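 Breast cancer cell lines in 20 µl suspension were added to 384-well plates containing compound at 5 concentrations, spaced in 10-fold steps across a 10,000-fold range chosen for each compound, and incubated for 72 h. CellTox Green fluorescence was read at 485/520 nm, followed by CellTiter-Glo luminescence after 10 min at room temperature. Signals on each plate were normalised so that 0.1 % DMSO equals 100 and a positive kill control equals 0. Every value in the table is the normalised signal at one concentration of the series.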

[2] = test system: MDA-MB-468; test: as above
In short: as §1

[3] = test system: HCC1599; test: as above
In short: as §1

[4] = test system: HCC1143; test: as above
In short: as §1

[5] = test system: CAL-51; test: as above
In short: as §1

[6] = test system: HDQ-P1; test: as above
In short: as §1

[7] = test system: DU-4475; test: as above
In short: as §1

[8] = test system: MFM-223; test: as above
In short: as §1

[9] = test system: MDA-MB-453; test: as above
In short: as §1

[10] = test system: HCC1937; test: as above
In short: as §1

[11] = test system: CAL-85-1; test: as above
In short: as §1

[12] = test system: Hs578T; test: as above
In short: as §1

[13] = test system: BT-549; test: as above
In short: as §1

[14] = test system: MDA-MB-231; test: as above
In short: as §1

[15] = test system: CAL-120; test: as above
In short: as §1

[16] = test system: MCF-10A; test: as above
In short: as §1

[17] = test system: BT-474; test: as above
In short: as §1

[18] = test system: CAL-148; test: as above
In short: as §1

[19] = test system: MDA-MB-436; test: as above
In short: as §1

[20] = test system: MDA-MB-468; test: normalised response (% of control), CellTox Green; higher = less cell death (100 = DMSO, 0 = benzethonium chloride kill control)
In short: as §1

[21] = test system: HCC1599; test: as above
In short: as §1

[22] = test system: HCC1143; test: as above
In short: as §1

[23] = test system: CAL-51; test: as above
In short: as §1

[24] = test system: DU-4475; test: as above
In short: as §1

[25] = test system: MFM-223; test: as above
In short: as §1

[26] = test system: MDA-MB-453; test: as above
In short: as §1

[27] = test system: HCC1937; test: as above
In short: as §1

[28] = test system: CAL-85-1; test: as above
In short: as §1

[29] = test system: Hs578T; test: as above
In short: as §1

[30] = test system: BT-549; test: as above
In short: as §1

[31] = test system: MDA-MB-231; test: as above
In short: as §1

[32] = test system: CAL-120; test: as above
In short: as §1

[33] = test system: MCF-10A; test: as above
In short: as §1

[34] = test system: BT-474; test: as above
In short: as §1

[35] = test system: MDA-MB-436; test: as above
In short: as §1

[36] = test system: HDQ-P1; test: as above
In short: as §1

[37] = test system: CAL-148; test: as above
In short: as §1

Row | SMILES | normalised response [1] | normalised response [2] | normalised response [3] | normalised response [4] | normalised response [5] | normalised response [6] | normalised response [7] | normalised response [8] | normalised response [9] | normalised response [10] | normalised response [11] | normalised response [12] | normalised response [13] | normalised response [14] | normalised response [15] | normalised response [16] | normalised response [17] | normalised response [18] | normalised response [19] | normalised response [20] | normalised response [21] | normalised response [22] | normalised response [23] | normalised response [24] | normalised response [25] | normalised response [26] | normalised response [27] | normalised response [28] | normalised response [29] | normalised response [30] | normalised response [31] | normalised response [32] | normalised response [33] | normalised response [34] | normalised response [35] | normalised response [36] | normalised response [37]
1 | COc1cc2c(cc1-c1c(C)noc1C)ncc1[nH]c(=O)n([C@H](C)c3ccccn3)c12 [I-BET151] (1000 nM) | 82% | 86.3% | 97.3% | 87.3% | 87.4% | 82.9% | 82.9% | 72% | 68.4% | 79.5% | 57.4% | 52.6% | 57.5% | 85.7% | 71.2% | 74% | 77.8% | 101% | 94.7% | 117% | 97.9% | 105% | 89.2% | 94.7% | 101% | 106% | 42.4% | 83.8% | 79.2% | 93.6% | 123% | 91.8% | 109% | 97.2% | 99.7% | – | –
2 | COc1cc(Nc2ncc(F)c(Nc3ccc4c(n3)N(COP(=O)(O)O)C(=O)C(C)(C)O4)n2)cc(OC)c1OC [Fostamatinib] (250 nM) | 98.1% | 90.5% | 110% | 95% | 105% | 103% | 94.8% | 63.1% | 93.7% | 94.9% | 96.1% | 91.3% | 93.7% | 85% | 86.9% | 84% | 88.2% | 91.4% | 105% | 57% | 92.7% | 76.3% | 92.2% | 100% | 101% | 107% | 125% | 106% | 97.7% | 82.7% | 53.7% | 101% | 102% | 97.8% | 86.6% | 109% | 93.1%
3 | CCCc1cc(C)[nH]c(=O)c1CNC(=O)c1cc(-c2ccnc(N3CCN(C)CC3)c2)cc2c1cnn2C(C)C [GSK343] (1000 nM) | 83.6% | 87% | 95.9% | 95.3% | 73.8% | 103% | 89.5% | 90.7% | 80.4% | 103% | 101% | 101% | 92.9% | 97.3% | 95% | 96.4% | 103% | 77.9% | 99.1% | 183% | 91.5% | 98.9% | 82.5% | 94.6% | – | 97.6% | 121% | 98% | 73.9% | 107% | 106% | 96.1% | 107% | 97.9% | 79.6% | 72.7% | 98.2%
4 | CC(C)NC[C@@H](C(=O)N1CCN(c2ncnc3c2[C@H](C)C[C@H]3O)CC1)c1ccc(Cl)cc1 [GDC-0068] (1000 nM) | 67.2% | 60.9% | 103% | 89.3% | 60.5% | 65.5% | 91.9% | 31.7% | 53.6% | 79% | 85.8% | 85.4% | 70.2% | 92.4% | 81.4% | 82.8% | 89.5% | 19% | 89.1% | 95.5% | 93.2% | 121% | 89.6% | 102% | 86.1% | 97.8% | 115% | 113% | 101% | 90.5% | 106% | 99.3% | 74.4% | 74.3% | 113% | 105% | 34.3%
5 | CCc1cnn2c(NCc3ccc[n+]([O-])c3)cc(N3CCCC[C@H]3CCO)nc12 [Dinaciclib] (100 nM) | 4.18% | 9.07% | 10.5% | 18.8% | 10.2% | 22.3% | 18.6% | 14.8% | 15.5% | 27.6% | 8.18% | 12.9% | 12.7% | 5.94% | 36.6% | 28.7% | 20.7% | 52.9% | 15.8% | -14.9% | 71.3% | 88.7% | 50.7% | 96.3% | 30.3% | 100% | 87.2% | 21.7% | 38% | 53.8% | -7.86% | 87.7% | 65% | 71% | 105% | 63.2% | 50.9%
6 | CC[C@H](CC#N)OC(=O)N[C@@H](C)c1cccc(NC(=O)Nc2ccc(-c3cnco3)c(OC)c2)c1 [AVN944] (1000 nM) | 51.3% | 37.5% | 48.1% | 42.3% | 24.1% | 46.1% | 29.2% | 71.3% | 84.4% | 52.7% | 40.8% | 44.4% | 36.3% | 53.5% | 59.9% | 58% | 58.7% | 34.3% | 42.7% | 131% | 85% | 56.6% | 63.5% | 88.2% | 44.7% | 90.3% | 76.8% | 97% | 32% | 127% | 81.8% | 99.9% | 112% | 86.3% | 74% | 98.8% | -21.7%
7 | N[C@@H](Cc1ccc(N(CCCl)CCCl)cc1)C(=O)O [Melphalan] (1250 nM) | -0.01% | 0.81% | 2.61% | 34.5% | 0.26% | 1.18% | 0% | 0.49% | 0.2% | 4.2% | 0.23% | 16.4% | 22.1% | 0.06% | 50% | 0.24% | 1.75% | 7.68% | 9.28% | -18.1% | 45.5% | 95.9% | -30.1% | 51.8% | 10.1% | 25.6% | 18.1% | -12% | 35.8% | 28.1% | -55.7% | 72.2% | -50.4% | -13.4% | 84% | -17.2% | 4.59%
8 | Cn1cc(C[C@@H](N)C(=O)O)c2ccccc21 [1-methyl-D-tryptophan] (500 nM) | 92.7% | 101% | 115% | 94.8% | 81.3% | 107% | 94.4% | 92.7% | 105% | 99.3% | 100% | 115% | 105% | 96.6% | 105% | 104% | 97.6% | 89.7% | 101% | 143% | 85.2% | 94.1% | 95.5% | 101% | 84.3% | 103% | – | 98.8% | 66.7% | – | 95.6% | 99.3% | 113% | 99.3% | 88.9% | 107% | 91.4%
9 | CN1CCc2c(c3ccccc3n2Cc2ccc(C(=O)NO)cc2)C1 [Tubastatin A] (1000 nM) | 100% | 90.8% | 104% | 94.3% | 53.5% | 87.9% | 96.5% | 96.9% | 92.4% | 92.9% | 94.7% | 101% | 101% | 91.7% | 93.3% | 112% | 91.7% | 103% | 97.5% | 131% | 93.7% | – | 91.3% | 105% | 101% | 105% | 98% | 111% | 81.9% | 99.6% | 98.7% | 102% | 110% | 99.2% | 106% | 94.3% | 104%
